Blank lines part the entries; values can stand above or below the molecule they belong to. The source made the active and inactive calls. The rule behind the calls is not given here.
What was measured:
[1] = molecular target: T1, Histone-lysine N-methyltransferase EHMT2 (Homo sapiens) (UniProt Q96KQ7); assay: Inhibition of N-terminal GST-tagged recombinant human Histone-lysine N-methyltransferase G9a using S-(5'-adenosyl)-L-methionine chloride as substrate assessed as residual activity at 25 uM after 30 mins; values are per cent of control
T1 sequence (whole entry): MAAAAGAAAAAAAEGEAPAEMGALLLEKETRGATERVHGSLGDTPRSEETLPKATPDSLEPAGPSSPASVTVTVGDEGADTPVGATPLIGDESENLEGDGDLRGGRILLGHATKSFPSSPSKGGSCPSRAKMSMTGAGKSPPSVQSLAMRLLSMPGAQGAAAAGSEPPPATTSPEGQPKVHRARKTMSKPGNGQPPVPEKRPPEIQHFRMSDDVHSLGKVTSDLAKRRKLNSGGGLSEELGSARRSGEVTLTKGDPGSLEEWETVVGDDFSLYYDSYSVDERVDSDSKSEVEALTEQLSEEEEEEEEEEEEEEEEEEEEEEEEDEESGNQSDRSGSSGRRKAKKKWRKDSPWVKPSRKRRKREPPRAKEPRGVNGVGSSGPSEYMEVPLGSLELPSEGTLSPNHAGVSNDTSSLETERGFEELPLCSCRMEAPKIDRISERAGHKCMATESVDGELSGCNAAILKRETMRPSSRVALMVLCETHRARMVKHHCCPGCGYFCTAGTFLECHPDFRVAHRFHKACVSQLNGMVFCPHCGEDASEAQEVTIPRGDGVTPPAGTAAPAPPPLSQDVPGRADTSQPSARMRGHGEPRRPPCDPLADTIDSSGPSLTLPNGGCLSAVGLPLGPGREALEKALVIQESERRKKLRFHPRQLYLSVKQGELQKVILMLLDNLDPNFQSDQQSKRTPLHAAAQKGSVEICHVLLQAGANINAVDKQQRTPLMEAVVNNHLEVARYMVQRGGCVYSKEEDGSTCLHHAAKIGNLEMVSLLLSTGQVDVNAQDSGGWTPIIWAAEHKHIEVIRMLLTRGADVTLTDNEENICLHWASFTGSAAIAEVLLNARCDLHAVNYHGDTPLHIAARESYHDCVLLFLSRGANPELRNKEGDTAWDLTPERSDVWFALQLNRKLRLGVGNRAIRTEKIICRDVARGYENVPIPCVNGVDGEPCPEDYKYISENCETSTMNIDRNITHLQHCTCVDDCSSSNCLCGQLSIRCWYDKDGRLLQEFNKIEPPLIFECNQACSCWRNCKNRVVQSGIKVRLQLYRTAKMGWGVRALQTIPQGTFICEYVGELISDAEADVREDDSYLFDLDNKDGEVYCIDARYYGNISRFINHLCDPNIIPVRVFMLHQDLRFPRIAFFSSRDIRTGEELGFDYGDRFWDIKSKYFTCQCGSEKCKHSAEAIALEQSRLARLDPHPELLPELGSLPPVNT

[2] = molecular target: T2, Histone-lysine N-methyltransferase EHMT2 (Homo sapiens, UniProt Q96KQ7); assay: Inhibition of N-terminal GST-tagged recombinant human Histone-lysine N-methyltransferase G9a using S-(5'-adenosyl)-L-methionine chloride as substrate after 30 mins
T2 sequence (Q96KQ7 whole entry): T1 sequence (whole entry)

[3] = molecular target: T1, Histone-lysine N-methyltransferase EHMT2 (Homo sapiens); assay: Reversible inhibition of N-terminal GST-tagged recombinant human Histone-lysine N-methyltransferase G9a using S-(5'-adenosyl)-L-methionine chloride as substrate assessed as enzyme recovery at 10 fold IC50 preincubated for 30 mins followed by 100 fold dilution in presence of DTT
[4] = molecular target: T2, Histone-lysine N-methyltransferase EHMT2
Description: Competitive inhibition of N-terminal GST-tagged recombinant human Histone-lysine N-methyltransferase G9a using S-(5'-adenosyl)-L-methionine chloride as substrate preincubated for 30 mins followed by substrate addition measured after 30 mins

[5] = Inhibition of Neurospora crassa Histone H3-K9 methyltransferase dim-5
[6] = molecular target: T1, Histone-lysine N-methyltransferase EHMT2 (Homo sapiens); assay: Inhibition of N-terminal GST-tagged recombinant human Histone-lysine N-methyltransferase G9a using S-(5'-adenosyl)-L-methionine chloride as substrate assessed as nonspecific denaturation of enzyme at 0.05 to 25 uM preincubated for 30 mins in presence of urea and DTT
[7] = Induction of H2O2 generation in HBSS/Phenol Red buffer at 10 to 100 uM preincubated for 15 mins by HRP assay in presence of DTT; format: physicochemical; conditions: 0.25 h

Compound: CN1C(=O)[C@@]23C[C@]4([C@]56C[C@@]78S[C@@](CO)(C(=O)N7[C@H]5Nc5ccccc56)N(C)C8=O)c5ccccc5N[C@@H]4N2C(=O)[C@]1(CO)S3
residual activity [1]: 36%
IC50 [2]: 10.6 µM

Compound: O=C1[C@@H]2SS[C@@H](C(=O)N2Cc2ccccc2)N1Cc1ccccc1
inhibition [3]: Active
IC50 [4]: 5.11 µM
residual activity [1]: 19%
IC50 [2]: 4.9 µM

Compound: CN1C(=O)[C@@]23C[C@]4([C@]56C[C@@]78SS[C@@](CO)(C(=O)N7[C@H]5Nc5ccccc56)N(C)C8=O)c5ccccc5N[C@@H]4N2C(=O)[C@]1(CO)SS3 [CHAETOCIN]
inhibition [3]: Active
IC50 [5]: 3 µM
inhibition [6]: Active
residual activity [1]: 8%
IC50 [2]: 2.6 µM
Activity [7]: Not Active

inhibition [6]: inactive
Compound: Nc1ncnc2c1ncn2[C@@H]1O[C@H](CSCC[C@H](N)C(=O)O)[C@@H](O)[C@H]1O

— ChEMBL document CHEMBL3124916, “On the histone lysine methyltransferase activity of fungal metabolite chaetocin” (J Med Chem, 2013)
